From PMC10847306, “The antibacterial activity and mechanism of a novel peptide MR-22 against multidrug-resistant Escherichia coli” (Frontiers in Cellular and Infection Microbiology, 2024)

Key:
E. coli ATCC 25922 = assay: microbe, parasite or virus in culture
Experimental: (§1) The MIC were determined by a micro dilution method in Mueller-Hinton broth (MHB) ([Cuenca-Estrella et al., 2010]). The final concentration of bacterial suspension in MHB were 1.0×10^6 CFU/mL. The final concentration of MR-22 ranged 1 ~ 256 μg/mL in 96 wells plate broth at 37°C for 16~18 h. Imipenem was employed as positive control, bacterial grown without treatment as negative control and MHB as blank control. MIC determination was performed by reading the OD600 nm. Take 100 μL samples in holes that have never seen bacterial growth and place them on the LB agar board. The concentration of MR-22 with no bacterial growth was defined as the MBC.

[1] = system: E. coli clinical strain E01; assay: microbe, parasite or virus in culture
Experimental: (§2) The clinical strains used in this study were obtained from a tertiary healthcare facility located in Guiyang, a city situated within the Guizhou Province of China. The E. coli ATCC 25922 was obtained from the Key and Characteristic Laboratory of Modern Pathogen Biology at Guizhou Medical University in Guiyang, China. All strains were stored at –80°C in LB medium and routinely cultured at LB medium at 37°C.
as §1

[2] = system: E. coli clinical strain E02; assay: microbe, parasite or virus in culture
Experimental: as §2, §1

[3] = system: E. coli clinical strain E03; assay: microbe, parasite or virus in culture
Experimental: as §2, §1

[4] = system: E. coli clinical strain E04; assay: microbe, parasite or virus in culture
Experimental: as §2, §1

[5] = system: E. coli clinical strain E05; assay: microbe, parasite or virus in culture
Experimental: as §2, §1

[6] = system: E. coli clinical strain E06; assay: microbe, parasite or virus in culture
Experimental: as §2, §1

[7] = system: E. coli clinical strain E07; assay: microbe, parasite or virus in culture
Experimental: as §2, §1

[8] = system: E. coli clinical strain E08; assay: microbe, parasite or virus in culture
Experimental: as §2, §1

[9] = system: E. coli clinical strain E09; assay: microbe, parasite or virus in culture
Experimental: as §2, §1

[10] = system: E. coli clinical strain E10; assay: microbe, parasite or virus in culture
Experimental: as §2, §1

[11] = system: E. coli clinical strain E11; assay: microbe, parasite or virus in culture
Experimental: as §2, §1

[12] = system: E. coli clinical strain E12; assay: microbe, parasite or virus in culture
Experimental: as §2, §1

[13] = system: E. coli clinical strain E13; assay: microbe, parasite or virus in culture
Experimental: as §2, §1

[14] = system: E. coli clinical strain E14; assay: microbe, parasite or virus in culture
Experimental: as §2, §1

[15] = system: E. coli clinical strain E15; assay: microbe, parasite or virus in culture
Experimental: as §2, §1

[16] = system: E. coli clinical strain E16; assay: microbe, parasite or virus in culture
Experimental: as §2, §1

[17] = system: E. coli clinical strain E17; assay: microbe, parasite or virus in culture
Experimental: as §2, §1

[18] = system: E. coli clinical strain E18; assay: microbe, parasite or virus in culture
Experimental: as §2, §1

[19] = system: E. coli clinical strain E19; assay: microbe, parasite or virus in culture
Experimental: as §2, §1

[20] = system: E. coli clinical strain E20; assay: microbe, parasite or virus in culture
Experimental: as §2, §1

[21] = system: E. coli clinical strain E21; assay: microbe, parasite or virus in culture
Experimental: as §2, §1

[22] = system: E. coli clinical strain E22; assay: microbe, parasite or virus in culture
Experimental: as §2, §1

[23] = system: E. coli ATCC 25922 and clinically drug resistant isolated strains; assay: microbe, parasite or virus in culture; format: cell-based, Escherichia coli; conditions: Escherichia coli; E. coli ATCC 25922 and 22 clinical isolates; microdilution, MHB; read-out: MIC over all strains tested
Experimental: as §1

E. coli E19 = assay: Mice peritonitis model; format: in vivo; conditions: C57BL/6J mice, E19 peritonitis; 10 mg/kg 1 h after infection; after 36 h; ten mice per group; control group 8.73 ± 0.38
Experimental: This study utilized female C57BL/6J mice aged 6-8 weeks, weight range of 18-20 g, which were obtained from SPF Biotechnology Co., Ltd (Beijing, China). The animals were housed under maintained on a standard 12 h light/12 h dark cycle. All animal experiments were conducted in accordance with the Ethical Principles in Animal Research adopted by Guizhou Medical University and were approved by the Institutional Animal Care and Use Committee.
To evaluate the in vivo efficacy of MR-22, we used a mice peritonitis model. A total of 60 mice were divided into three groups: treatment group (10 mg/kg MR-22, intraperitoneal injection), positive control group (10 mg/kg imipenem, intraperitoneal injection), and normal control group (PBS, intraperitoneal injection). Peritonitis was induced by intraperitoneal injection of 1.0 × 10^8 CFU bacterial inoculum in 0.2 mL of E. coli E19. Survival rates were recorded every 12 h for 7 days.
To study the protective effects of MR-22, 10 mice in each group were sacrificed, and peritoneal lavage fluid, blood, liver, and kidney were collected 36 h after administration. The number of colonies in peritoneal lavage fluid and blood were determined by culturing on LB agar, while the tissues were fixed in 4% paraformaldehyde and subjected to hematoxylin and eosin staining to study the morphology.

With `C[C@@H](O)[C@H]1C(=O)N2C(C(=O)O)=C(SCCN=CN)C[C@H]12` [IPM, imipenem] the “susceptibility category (S/I/R) given with the MIC” value (“susceptibility category” for short) (E. coli ATCC 25922; E. coli ATCC 25922) was “S”, the MIC (E. coli ATCC 25922; Escherichia coli, ATCC25922, 18 h) was at most 1 µg/mL and the MIC ([1]; Escherichia coli, 18 h) was at most 1 µg/mL. For the same compound, the “susceptibility category” value ([1]; strain E01) was “S”, the MIC ([2]; Escherichia coli, 18 h) was at most 1 µg/mL and the “susceptibility category” value ([2]; strain E02) was “S”. The MIC ([3]; Escherichia coli, 18 h) was at most 1 µg/mL, the “susceptibility category” value ([3]; strain E03) was “S” and the MIC ([4]; Escherichia coli, 18 h) was at most 1 µg/mL. The “susceptibility category” value ([4]; strain E04) was “S”, the MIC ([5]; Escherichia coli, 18 h) was at most 1 µg/mL and the “susceptibility category” value ([5]; strain E05) was “S”. For the same compound, the MIC ([6]; Escherichia coli, 18 h) was at most 1 µg/mL, the “susceptibility category” value ([6]; strain E06) was “S” and the MIC ([7]; Escherichia coli, 18 h) was at most 1 µg/mL. The “susceptibility category” value ([7]; strain E07) was “S”, the MIC ([8]; Escherichia coli, 18 h) was at most 1 µg/mL and the “susceptibility category” value ([8]; strain E08) was “S”. The MIC ([9]; Escherichia coli, 18 h) was at most 1 µg/mL, the “susceptibility category” value ([9]; strain E09) was “S” and the MIC ([10]; Escherichia coli, 18 h) was at most 1 µg/mL. The “susceptibility category” value ([10]; strain E10) was “S”, the MIC ([11]; Escherichia coli, 18 h) was at most 1 µg/mL and the “susceptibility category” value ([11]; strain E11) was “S”. For the same compound, the MIC ([12]; Escherichia coli, 18 h) was at most 1 µg/mL, the “susceptibility category” value ([12]; strain E12) was “S” and the MIC ([13]; Escherichia coli, 18 h) was at most 1 µg/mL. For the same compound, the “susceptibility category” value ([13]; strain E13) was “S”, the MIC ([14]; Escherichia coli, 18 h) was at most 1 µg/mL and the “susceptibility category” value ([14]; strain E14) was “S”. For the same compound, the MIC ([15]; Escherichia coli, 18 h) was at most 1 µg/mL, the “susceptibility category” value ([15]; strain E15) was “S” and the MIC ([16]; Escherichia coli, 18 h) was at most 1 µg/mL. The “susceptibility category” value ([16]; strain E16) was “S”, the MIC ([17]; Escherichia coli, 18 h) was at most 1 µg/mL and the “susceptibility category” value ([17]; strain E17) was “S”. For the same compound, the MIC ([18]; Escherichia coli, 18 h) was at most 1 µg/mL, the “susceptibility category” value ([18]; strain E18) was “S” and the MIC ([19]; Escherichia coli, 18 h) was at most 1 µg/mL. For the same compound, the “susceptibility category” value ([19]; strain E19) was “S”, the MIC ([20]; Escherichia coli, 18 h) was at most 1 µg/mL and the “susceptibility category” value ([20]; strain E20) was “S”. The MIC ([21]; Escherichia coli, 18 h) was at most 1 µg/mL, the “susceptibility category” value ([21]; strain E21) was “S” and the MIC ([22]; Escherichia coli, 18 h) was at most 1 µg/mL. The “susceptibility category” value ([22]; strain E22) was “S”, the MIC [23] was at most 1 µg/mL and the “bacterial content in the peritoneal lavage fluid” value (E. coli E19) was 4.20 ± 0.25 Log10CFU/mL.
